Counter-ions that a name gives are not always drawn. Like-named read-outs stand apart in the source and are kept apart here.
What was measured:
[1] = tested on: male NMRI mouse; test: Anti-arrythmic activity: fibrillation by chloroform in the mouse; assay type: in vivo; settings: for ED50: Mus musculus
Text: Tables 5 and 6 show the anti-arrithmic activity of the ITA 362 in the male NMRI mouse by oral and intraperitoneal route using the fibrillation test by chloroform in the mouse. […] The activity of the two forms of maleate described in the example 2 were studied and which in the table are subtitled as isomer A corresponding to the first fraction obtained in the aforementioned example, and isomer B corresponding to the second fraction.

[2] = tested on: hind quarters of rats; test: Vasodilatory activity: perfusion of the hindquarters of rats with a hyperpotasemic solution; assay type: in vivo, rat; parameters: ED 25: unit not given here
Text: In the table 3 is shown the results of the vasodilatory activity of the ITA 362 in the perfusion test of the hindquarters of rats with a hyperpotasemic solution. (F.N.Fastier, F.M. Smirk. Jl. Pharmacolog. Exp. Therapy. 89. 256, 1947).

[3] = tested on: conscious dog; test: Anti-angina activity: amplitude increase protection of the T wave by vasopression in the conscious dog; assay type: in vivo
Text: The antiangina activity was also compared with that of the nitroglycerine by means of the amplitude increase protection test of the T wave for vasopression in the conscious dog. ( A.Lindner, M.London, G.Werner, Scheiz. Med.
Wsohr. 83-,- 360, 1953; J.Papp, L. Szekeres. Arch. Int. Pharmacodyn. 160, 1, 1966 ).

[4] = Acute toxicity (LD50, method of Litchfield and Wilcoxon) in the mouse; settings: in vivo
Description: (§1) The respective lethal dose 50 was calculated according to the method of Litchfield and Wilcoxon (Jl. Pharmacol. Exptl. 96 99, 1949 ).

[5] = Acute toxicity (LD50, method of Litchfield and Wilcoxon) in the rat; settings: in vivo
Description: as §1

[6] = ip, no unit given for ED50 (doses in mg/kg), read-out: ED50 and confidence limits p < 0,05
[7] = po, no unit given for ED50 (doses in mg/kg), (*) = calculation of limits is not possible, read-out: ED50 and confidence limits p<0,05
[8] = ip, intraperitoneal administration, read-out: LD50 and confidence limits
[9] = oral administration, read-out: LD50

Row | Structure (SMILES) | ED50 [1, 6] | % protection versus fibrillation ([1]; i.p. 25 mg/kg) | % protection versus fibrillation ([1]; i.p. 50 mg/kg, 50 mg/kg) | % protection versus fibrillation ([1]; i.p. 100 mg/kg, 100 mg/kg) | % protection versus fibrillation ([1]; i.p. 12,5 mg/kg) | % protection versus fibrillation ([1]; p.o. 25 mg/kg, 25 mg/kg) | % protection versus fibrillation ([1]; p.o. 50 mg/kg, 50 mg/kg) | % protection versus fibrillation ([1]; p.o. 100 mg/kg, 100 mg/kg) | % protection versus fibrillation ([1]; p.o. 12,5 mg/kg) | ED50 [1, 7] | % drop in pressure ([2]; concentration 10^-5 g/ml) | % drop in pressure ([2]; concentration 10^-6 g/ml) | % drop in pressure ([2]; concentration 10^-7 g/ml) | % drop in pressure ([2]; concentration 10^-8 g/ml) | % Prot. ([3]; dose i.v. 1 mg/kg, 1 mg/kg) | further results
1 | CCCCNCC1COC(c2ccc(Cl)cc2)(c2cc3ccccc3o2)O1 (single isomer, unassigned) [ITA 362 maleate (isomer A)] | 35.3 mg/kg | 35% | 60% | 70% | 35% | 35% | 70% | 70% | 25% |  |  |  |  |  |  | 
2 | CCCCNCC1COC(c2ccc(Cl)cc2)(c2cc3ccccc3o2)O1 (single isomer, unassigned) [ITA 362 maleate (isomer B)] |  | 35% | 70% | 95% | 40% | 55% | 45% | 85% | 35% | 27.6 mg/kg |  |  |  |  |  | ED50 and confidence limits p < 0,05 ([1]; route i.p., no unit given for ED50 (doses in mg/kg)): 24,5 (16,11 37,20)
3 | CCCCNCC1COC(c2ccc(Cl)cc2)(c2cc3ccccc3o2)O1 (stereo not shown) [ITA 362 citrate] | 41.4 mg/kg | 40% |  |  | 25% |  |  |  | 31,6% | 43.2 mg/kg | 33,6% | 16,3% | 12,7% | 12,5% |  | % protection versus fibrillation ([1]; i.p. 50 mg/kg): 35%; % protection versus fibrillation ([1]; i.p. 100 mg/kg): 84,2%; % protection versus fibrillation ([1]; p.o. 25 mg/kg): 45%; % protection versus fibrillation ([1]; p.o. 50 mg/kg): 55%; % protection versus fibrillation ([1]; p.o. 100 mg/kg): 55%; % protection versus fibrillation ([1]; p.o. 3,125 mg/kg): 10%; % protection versus fibrillation ([1]; p.o. 6,25 mg/kg): 42,1%; ED 25 ([2]; from concentrations 10^-5 to 10^-8 g/ml, correlation r printed in the same cell): 2,61
4 | CCCCNCC1COC(c2ccc(Cl)cc2)(c2cc3ccccc3o2)O1 (stereo not shown) [ITA 362 maleate, 2-(2'-benzofuranil) -4-butylaminomethyl--2-p-chlorophenyl-1,3-dioxolane, maleate] |  |  |  |  |  |  |  |  |  |  |  |  |  |  | 46,8% | Control quot. treatment ([3]; dose i.v. 1 mg/kg): 1,893; LD50 [4, 8]: 106 mg/kg; LD50 [4, 9]: > 4000 mg/kg; LD50 [5, 8]: 105 mg/kg; LD50 [5, 9]: > 4000 mg/kg
5 | CCCCNCC1COC(c2ccc(Cl)cc2)(c2cc3ccccc3o2)O1 (stereo not shown) [ITA 362, 2-(2' -benzofuranil)-4-n-butylaminomethyl-2-p-chlorophenyl-1,3-dioxolane] |  |  |  |  |  |  |  |  |  |  |  |  |  |  | ~50% | 
6 | O=[N+]([O-])OCC(CO[N+](=O)[O-])O[N+](=O)[O-] [Nitro-glycerine, nitroglycerine, reference compound] |  |  |  |  |  |  |  |  |  |  | 25,4% | 24,7% | 17,5% | 10,9% |  | % Prot. ([3]; dose i.v. 0,4 mg/kg): 28,9%; Control quot. treatment ([3]; dose i.v. 0,4 mg/kg): 1,520

Source: EP0076973A1, “A new dioxolanic compound and its method of preparation; a new dioxolanic amine with pharmacological activity, its method of preparation, and the pharmaceutical compositions containing them” (Investigacion Tecnica y Aplicada, S.A., priority 1981, dated 1983)
